Reference: ChEMBL document CHEMBL4184242, “Synthesis and antibacterial studies of teixobactin analogues with non-isostere substitution of enduracididine” (2018)
Converted amounts (≈) assume the structure as drawn.

Assays:
Staphylococcus aureus [1] = test: Antibacterial activity against methicillin-susceptible Staphylococcus aureus ATCC 29213 by CLSI M100-S17 protocol based broth dilution method; format: functional
Staphylococcus aureus [2] = test: Antibacterial activity against methicillin-resistant Staphylococcus aureus isolate SA1114 by CLSI M100-S17 protocol based broth dilution method; format: functional

SMILES	MIC (Staphylococcus aureus [1])	MIC (Staphylococcus aureus [2])
CCCC[C@@H]1NC(=O)[C@H](C)NC(=O)[C@H](NC(=O)[C@H](CO)NC(=O)[C@@H](NC(=O)[C@H](NC(=O)[C@@H](CCC(N)=O)NC(=O)[C@H](CO)NC(=O)[C@@H](NC(=O)[C@@H](Cc2ccccc2)NC)[C@@H](C)CC)[C@H](C)CC)[C@@H](C)CC)[C@H](C)OC(=O)[C@H]([C@@H](C)CC)NC1=O	0.5 µg/mL (≈ 0.416 µM)	2 µg/mL (≈ 1.66 µM)
CC[C@@H](C)[C@@H](NC(=O)[C@@H](CCC(N)=O)NC(=O)[C@H](CO)NC(=O)[C@@H](NC(=O)[C@@H](Cc1ccccc1)NC)[C@@H](C)CC)C(=O)N[C@H](C(=O)N[C@@H](CO)C(=O)N[C@H]1C(=O)N[C@@H](C)C(=O)N[C@H](CCCCN)C(=O)N[C@@H]([C@@H](C)CC)C(=O)O[C@H]1C)[C@@H](C)CC	≥ 32 µg/mL	≥ 32 µg/mL
CC[C@@H](C)[C@@H](NC(=O)[C@@H](CCC(N)=O)NC(=O)[C@H](CO)NC(=O)[C@@H](NC(=O)[C@@H](Cc1ccccc1)NC)[C@@H](C)CC)C(=O)N[C@H](C(=O)N[C@@H](CO)C(=O)N[C@H]1C(=O)N[C@@H](C)C(=O)N[C@@H]([C@@H](C)CC)C(=O)N[C@@H]([C@@H](C)CC)C(=O)O[C@H]1C)[C@@H](C)CC	0.5 µg/mL (≈ 0.416 µM)	1 µg/mL (≈ 0.832 µM)
CC[C@@H](C)[C@@H](NC(=O)[C@@H](CCC(N)=O)NC(=O)[C@H](CO)NC(=O)[C@@H](NC(=O)[C@@H](Cc1ccccc1)NC)[C@@H](C)CC)C(=O)N[C@H](C(=O)N[C@@H](CO)C(=O)N[C@H]1C(=O)N[C@@H](C)C(=O)N[C@@H](CC(N)=O)C(=O)N[C@@H]([C@@H](C)CC)C(=O)O[C@H]1C)[C@@H](C)CC	8 µg/mL (≈ 6.65 µM)	16 µg/mL (≈ 13.3 µM)
CC[C@@H](C)[C@@H](NC(=O)[C@@H](CCC(N)=O)NC(=O)[C@H](CO)NC(=O)[C@@H](NC(=O)[C@@H](Cc1ccccc1)NC)[C@@H](C)CC)C(=O)N[C@H](C(=O)N[C@@H](CO)C(=O)N[C@H]1C(=O)N[C@@H](C)C(=O)N[C@@H](C)C(=O)N[C@@H]([C@@H](C)CC)C(=O)O[C@H]1C)[C@@H](C)CC	2 µg/mL (≈ 1.73 µM)	8 µg/mL (≈ 6.9 µM)
CC[C@@H](C)[C@@H](NC(=O)[C@@H](CCC(N)=O)NC(=O)[C@H](CO)NC(=O)[C@@H](NC(=O)[C@@H](Cc1ccccc1)NC)[C@@H](C)CC)C(=O)N[C@H](C(=O)N[C@@H](CO)C(=O)N[C@H]1C(=O)N[C@@H](C)C(=O)NC(C)(C)C(=O)N[C@@H]([C@@H](C)CC)C(=O)O[C@H]1C)[C@@H](C)CC	≥ 32 µg/mL	≥ 32 µg/mL
CC[C@@H](C)[C@@H](NC(=O)[C@@H](CCC(N)=O)NC(=O)[C@H](CO)NC(=O)[C@@H](NC(=O)[C@@H](Cc1ccccc1)NC)[C@@H](C)CC)C(=O)N[C@H](C(=O)N[C@@H](CO)C(=O)N[C@H]1C(=O)N[C@@H](C)C(=O)N[C@@H](Cc2ccc(C)cc2)C(=O)N[C@@H]([C@@H](C)CC)C(=O)O[C@H]1C)[C@@H](C)CC	1 µg/mL (≈ 0.8 µM)	≥ 32 µg/mL
